Measured values from PubChem BioAssay AID1919003 (Molecular Pharmacology Branch, DTP, NCI, 2023).
Several values for one entry are separate records, joined by “and”; a condition that tells them apart may be missing. Equal values may be shown once.

System: 786-0 complex spheroids with HUVEC/MSC, growth % test/control
Assay: Anticancer human tumor 786-0 cell line growth inhibition [AhR];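 also: compound exposure lasted seven days before the read-out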
Conditions: for viability, T/C: stronger effect = lower value
Procedure, shortened: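 Agents were dosed in half-log steps down from roughly clinical Cmax, or from 10 microM where Cmax was unknown, alone and with AhR antagonists. Read-out: percent test/control growth of tumor spheroids containing HUVEC and MSC stromal cells.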

[1] = curve of first compound, second compound 0.1 µM
[2] = curve of first compound, second compound 0.316 µM
[3] = curve of first compound, second compound 1 µM
[4] = curve of first compound, second compound 3.16 µM
[5] = curve of first compound, second compound 10 µM
[6] = second compound 0.1 µM, first compound 0.000949 µM
[7] = second compound 0.1 µM, first compound 0.003 µM
[8] = second compound 0.1 µM, first compound 0.00949 µM
[9] = second compound 0.1 µM, first compound 0.03 µM
[10] = second compound 0.1 µM, first compound 0.0949 µM
[11] = second compound 0.1 µM, first compound 0.3 µM
[12] = second compound 0.316 µM, first compound 0.000949 µM
[13] = second compound 0.316 µM, first compound 0.003 µM
[14] = second compound 0.316 µM, first compound 0.00949 µM
[15] = second compound 0.316 µM, first compound 0.03 µM
[16] = second compound 0.316 µM, first compound 0.0949 µM
[17] = second compound 0.316 µM, first compound 0.3 µM
[18] = second compound 1 µM, first compound 0.000949 µM
[19] = second compound 1 µM, first compound 0.003 µM
[20] = second compound 1 µM, first compound 0.00949 µM
[21] = second compound 1 µM, first compound 0.03 µM
[22] = second compound 1 µM, first compound 0.0949 µM
[23] = second compound 1 µM, first compound 0.3 µM
[24] = second compound 3.16 µM, first compound 0.000949 µM
[25] = second compound 3.16 µM, first compound 0.003 µM
[26] = second compound 3.16 µM, first compound 0.00949 µM
[27] = second compound 3.16 µM, first compound 0.03 µM
[28] = second compound 3.16 µM, first compound 0.0949 µM
[29] = second compound 3.16 µM, first compound 0.3 µM
[30] = second compound 10 µM, first compound 0.000949 µM
[31] = second compound 10 µM, first compound 0.003 µM
[32] = second compound 10 µM, first compound 0.00949 µM
[33] = second compound 10 µM, first compound 0.03 µM
[34] = second compound 10 µM, first compound 0.0949 µM
[35] = second compound 10 µM, first compound 0.3 µM
[36] = second compound 0.1 µM, first compound 0.0316 µM
[37] = second compound 0.1 µM, first compound 0.1 µM
[38] = second compound 0.1 µM, first compound 0.316 µM
[39] = second compound 0.1 µM, first compound 1 µM
[40] = second compound 0.1 µM, first compound 3.16 µM
[41] = second compound 0.1 µM, first compound 10 µM
[42] = second compound 0.316 µM, first compound 0.0316 µM
[43] = second compound 0.316 µM, first compound 0.1 µM
[44] = second compound 0.316 µM, first compound 0.316 µM
[45] = second compound 0.316 µM, first compound 1 µM
[46] = second compound 0.316 µM, first compound 3.16 µM
[47] = second compound 0.316 µM, first compound 10 µM
[48] = second compound 1 µM, first compound 0.0316 µM
[49] = second compound 1 µM, first compound 0.1 µM
[50] = second compound 1 µM, first compound 0.316 µM
[51] = second compound 1 µM, first compound 1 µM
[52] = second compound 1 µM, first compound 3.16 µM
[53] = second compound 1 µM, first compound 10 µM
[54] = second compound 3.16 µM, first compound 0.0316 µM
[55] = second compound 3.16 µM, first compound 0.1 µM
[56] = second compound 3.16 µM, first compound 0.316 µM
[57] = second compound 3.16 µM, first compound 1 µM
[58] = second compound 3.16 µM, first compound 3.16 µM
[59] = second compound 3.16 µM, first compound 10 µM
[60] = second compound 10 µM, first compound 0.0316 µM
[61] = second compound 10 µM, first compound 0.1 µM
[62] = second compound 10 µM, first compound 0.316 µM
[63] = second compound 10 µM, first compound 1 µM
[64] = second compound 10 µM, first compound 3.16 µM
[65] = second compound 10 µM, first compound 10 µM

CCc1c2c(nc3ccc(O)cc13)-c1cc3c(c(=O)n1C2)COC(=O)[C@]3(O)CC + Cc1cncc(-c2nc(NCCc3c[nH]c4ccccc34)c3ncn(C(C)C)c3n2)c1
IC50 [1]: 6.02 nM
IC50 [2]: 6.06 nM
IC50 [3]: 5.1 nM
IC50 [4]: 1.52 nM
IC50 [5]: < 0.949 nM
viability, T/C [6]: 106%
viability, T/C [7]: 93.5%
viability, T/C [8]: 21.5%
viability, T/C [9]: 5.21%
viability, T/C [10]: 2.42%
viability, T/C [11]: 2.24%
viability, T/C [12]: 112%
viability, T/C [13]: 95.4%
viability, T/C [14]: 21%
viability, T/C [15]: 6.67%
viability, T/C [16]: 3.31%
viability, T/C [17]: 2.09%
viability, T/C [18]: 99.5%
viability, T/C [19]: 79.5%
viability, T/C [20]: 15.4%
viability, T/C [21]: 5.63%
viability, T/C [22]: 2.53%
viability, T/C [23]: 3.71%
viability, T/C [24]: 65.7%
viability, T/C [25]: 27.2%
viability, T/C [26]: 4.92%
viability, T/C [27]: 2.43%
viability, T/C [28]: 1.6%
viability, T/C [29]: 1.37%
viability, T/C [30]: 1.65%
viability, T/C [31]: 0.61%
viability, T/C [32]: 0.43%
viability, T/C [33]: 0.38%
viability, T/C [34]: 0.28%
viability, T/C [35]: 0.36%

COc1cc(Nc2ncc3c(n2)-c2ccc(Cl)cc2C(c2c(F)cccc2OC)=NC3)ccc1C(=O)O + Cc1cncc(-c2nc(NCCc3c[nH]c4ccccc34)c3ncn(C(C)C)c3n2)c1
IC50 [1]: 6870 nM
IC50 [2]: 6370 nM
IC50 [3]: 6550 nM
IC50 [4]: 7760 nM
IC50 [5]: < 31.6 nM
viability, T/C [36]: 115%
viability, T/C [37]: 115%
viability, T/C [38]: 155%
viability, T/C [39]: 104%
viability, T/C [40]: 75.5%
viability, T/C [41]: 38.2%
viability, T/C [42]: 121%
viability, T/C [43]: 121%
viability, T/C [44]: 144%
viability, T/C [45]: 123%
viability, T/C [46]: 69%
viability, T/C [47]: 37.8%
viability, T/C [48]: 115%
viability, T/C [49]: 125%
viability, T/C [50]: 152%
viability, T/C [51]: 114%
viability, T/C [52]: 71.2%
viability, T/C [53]: 37.9%
viability, T/C [54]: 63.3%
viability, T/C [55]: 68.3%
viability, T/C [56]: 94.2%
viability, T/C [57]: 92.3%
viability, T/C [58]: 70.1%
viability, T/C [59]: 44.4%
viability, T/C [60]: 4.3%
viability, T/C [61]: 1.69%
viability, T/C [62]: 2.04%
viability, T/C [63]: 3.84%
viability, T/C [64]: 4.27%
viability, T/C [65]: 16.9%

NS(=O)(=O)OCC1CC(n2ccc3c(NC4CCc5ccccc54)ncnc32)CC1O (configuration not stated)
viability, T/C (compound 0.0316 µM): 86.6% and 84.8% and 82.7%
viability, T/C (compound 0.1 µM): 82.9% and 78.3% and 70.6%
viability, T/C (compound 0.316 µM): 65.9% and 65% and 60.3%
viability, T/C (compound 1 µM): 28.2% and 41.9% and 20.8%
viability, T/C (compound 3.16 µM): 5.17% and 8.09% and 3.13%
viability, T/C (compound 10 µM): 3.31% and 4.15% and 1.12%
IC50 (curve of compound): 512 nM and 630 nM and 411 nM

NS(=O)(=O)OCC1CC(n2ccc3c(NC4CCc5ccccc54)ncnc32)CC1O (configuration not stated) + CC(CO)NC(=O)c1cc(-c2ccc(Cl)cc2)nn(-c2cnn(C)c2)c1=O
IC50 [1]: 365 nM
IC50 [2]: 344 nM
IC50 [3]: 376 nM
IC50 [4]: 249 nM
IC50 [5]: 261 nM
viability, T/C [36]: 78.8%
viability, T/C [37]: 78.7%
viability, T/C [38]: 52.8%
viability, T/C [39]: 20.9%
viability, T/C [40]: 3.93%
viability, T/C [41]: 1.87%
viability, T/C [42]: 86.8%
viability, T/C [43]: 73.3%
viability, T/C [44]: 54.5%
viability, T/C [45]: 19.6%
viability, T/C [46]: 4.23%
viability, T/C [47]: 2.08%
viability, T/C [48]: 77.4%
viability, T/C [49]: 72.1%
viability, T/C [50]: 55.2%
viability, T/C [51]: 21.8%
viability, T/C [52]: 4%
viability, T/C [53]: 2.14%
viability, T/C [54]: 87.8%
viability, T/C [55]: 67.7%
viability, T/C [56]: 47.6%
viability, T/C [57]: 19.1%
viability, T/C [58]: 3.93%
viability, T/C [59]: 2.48%
viability, T/C [60]: 93%
viability, T/C [61]: 72.9%
viability, T/C [62]: 46.5%
viability, T/C [63]: 18.7%
viability, T/C [64]: 3.17%
viability, T/C [65]: 2.21%

Nc1ncn(C2CC(O)C(CO)S2)c(=O)n1 (configuration not stated) + Cc1cncc(-c2nc(NCCc3c[nH]c4ccccc34)c3ncn(C(C)C)c3n2)c1
IC50 [1]: > 300 nM
IC50 [2]: > 300 nM
IC50 [3]: > 300 nM
IC50 [4]: 22.3 nM
IC50 [5]: < 0.949 nM
viability, T/C [6]: 120%
viability, T/C [7]: 123%
viability, T/C [8]: 122%
viability, T/C [9]: 118%
viability, T/C [10]: 94.2%
viability, T/C [11]: 82.7%
viability, T/C [12]: 121%
viability, T/C [13]: 117%
viability, T/C [14]: 121%
viability, T/C [15]: 110%
viability, T/C [16]: 94.7%
viability, T/C [17]: 79.3%
viability, T/C [18]: 101%
viability, T/C [19]: 102%
viability, T/C [20]: 94.3%
viability, T/C [21]: 90.3%
viability, T/C [22]: 61.1%
viability, T/C [23]: 57.6%
viability, T/C [24]: 69.2%
viability, T/C [25]: 65.2%
viability, T/C [26]: 59.8%
viability, T/C [27]: 46.6%
viability, T/C [28]: 40.4%
viability, T/C [29]: 39.9%
viability, T/C [30]: 17.2%
viability, T/C [31]: 14.9%
viability, T/C [32]: 22%
viability, T/C [33]: 15.6%
viability, T/C [34]: 10.9%
viability, T/C [35]: 9.94%

O=C(c1cc(Cc2n[nH]c(=O)c3ccccc23)ccc1F)N1CCN(C(=O)C2CC2)CC1 + Cc1ccccc1N=Nc1ccc(NC(=O)c2ccnn2C)c(C)c1
IC50 [1]: > 10000 nM
IC50 [2]: > 10000 nM
IC50 [3]: > 10000 nM
IC50 [4]: > 10000 nM
IC50 [5]: > 10000 nM
viability, T/C [36]: 101%
viability, T/C [37]: 105%
viability, T/C [38]: 99.8%
viability, T/C [39]: 104%
viability, T/C [40]: 97%
viability, T/C [41]: 104%
viability, T/C [42]: 97.1%
viability, T/C [43]: 101%
viability, T/C [44]: 107%
viability, T/C [45]: 106%
viability, T/C [46]: 107%
viability, T/C [47]: 101%
viability, T/C [48]: 100%
viability, T/C [49]: 101%
viability, T/C [50]: 104%
viability, T/C [51]: 97.1%
viability, T/C [52]: 107%
viability, T/C [53]: 99.1%
viability, T/C [54]: 94.6%
viability, T/C [55]: 97.9%
viability, T/C [56]: 99.5%
viability, T/C [57]: 97.3%
viability, T/C [58]: 106%
viability, T/C [59]: 94.4%
viability, T/C [60]: 98.2%
viability, T/C [61]: 93.8%
viability, T/C [62]: 102%
viability, T/C [63]: 94.9%
viability, T/C [64]: 88.1%
viability, T/C [65]: 87.5%
